Data set [1] deals with Mycobacterium smegmatis. The data set is described as follows: MIC, two-fold (broth) serial dilution, M. smegmatis. The data set is classed as cell-based. To be noted: Mycolicibacterium smegmatis, read-out: MIC. How it is done: (§1) Both qualitative and quantitative screens were performed. Qualitative screening was accomplished using the agar well diffusion assay technque while quantitative screening was accomplished by the two-fold (broth) serial dilution method to determine the minimum inhibitory concentration (MIC). Innoculation was accomplished with one loop-full of a 1:10 dilution of the 24-hour-old broth culture, (fungal cultures and M.smegmatis more often required 48 to 72 hours of incubation) of the test organisms in sterile water. Streptomycin sulfate was used as a positive control for antibacterial activity while amphitericin B was used as an antifungal positive control. Organisms utilized in the screens included gram-positive, gram-negative, and acid-fast bacteria as well as different types of fungi. […] An intermediate type activity is seen where R is hydrogen. However, where R is lengthened up to C15 a decrease in activity was noted. Total saturation of the two double bonds in the compounds having a methyl side chain lead, in most cases, to an increase in both antifungal and antibacterial activity.

Data set [2] has as its system Saccharomyces cerevisiae. Nature of the data set: MIC, two-fold (broth) serial dilution, S. cerevisiae. The data set is classed as cell-based. To be noted: Saccharomyces cerevisiae, read-out: MIC. How it is done:
as §1

The nature of data set [3]: deaths and adverse effects observed in the rat paw edema test. The data set is classed as in vivo. To be noted: 60 and 120 mg/kg i.p. How it is done:
(§2) In the Rat Paw Edema Test, the rats utilized were divided into test groups of six to eight animals, weighed and marked so that individual rats could be identified; one hour before testing all rats were given a 700 mg/kg intraperitoneal injection of ethyl urethane in distilled water to render them tractable during testing. A circle was drawn, with a felt-tipped marker, around the hind leg of each rat just above the ankle, and each rat was dosed with a test or control compound by intraperitoneal injection. Negative control groups received the vehicle; while positive control groups received a dose of phenylbutazone (PBZ) as shown in Table II. Test compounds were given at doses of 60, 120, 240 and 480 mg/kg. The positive controls were given at 120 mg/kg and 60 mg/kg. Phenylbutazone was prepared for injection by suspending it in normal saline using Tween 60. The rats were then held in group cages for 30 minutes. The volume of the left hind paw was measured using a mercury displacement pleysmograph. The paw is dipped into the mercury until the mercury touches the line above the ankle. Mercury is then withdrawn until the mercury returns to its original level. The amount of mercury removed is measured in milliliters (ml). The mercury can be measured accurately to 0.01 ml. This left hind paw was then injected with 0.1 ml of a 5% w/v solution of viscous carageenan in normal saline. The injection was given between the metatarsal bones using a 27 gauge needle, and the rats then held in group cages for 3 hours. The volume of the left hind paws was measured again in the pleysmograph. The results were computed in the following manner:
The eighth rat died within 24 hours of injection.

Data set [4] has as its system carrageenan-induced rat paw edema. The data set is described as follows: carrageenan-induced rat paw edema test, intraperitoneal dosing. The class given is in vivo. Also on record: key to mean difference in volume (MDV): post-injection minus pre-injection mean paw volume. To be noted: for mean difference in volume (MDV) / percent increase in paw volume / percent of control: Table 4, fasted rats. Here is the method:
Two methods were used to assess the antiinflammatory activity of the compounds of the invention: the carrageenan-induced rat paw edema test and, the erythrocyte membrane stabilization assay.
as §2
a. A mean is taken for both the pre-injection and post-injection paw volume of each test group.
b. The mean difference in volume (MDV) for each test group is computed by subtracting the pre-injection means from the post-injection mean.
c. The percent of control is computed for each test [formula] The percent of control is used to compare the efficacy of the various drug treatments.
d. The percent increase in paw volume is calculated for each group as: [formula] The percent increase is used to compare the amount of edma observed in one experiment to the amount of edma observed in other experiments.
The data from the rat paw test were further analyzed using a one-way analysis of varience (ANOVA) and Duncan's New Multiple Range Test. The pre-injection score of each animal was subtracted from his post-injection score and an analysis of the different scores were conducted.
The procedure described above was followed. […] The vehicle control used was Tween 60, Arlacel and distilled water prepared without CBC(II).

The test system of data set [5] is Staphylococcus aureus. The data set is described as follows: MIC, two-fold (broth) serial dilution, S. aureus. The data set is classed as cell-based. To be noted: Staphylococcus aureus, read-out: MIC. How it is done:
as §1

Data set [6] has as its system Bacillus subtilis. The data set is described as follows: MIC, two-fold (broth) serial dilution, B. subtilis. The data set is classed as cell-based. To be noted: Bacillus subtilis, read-out: MIC. Here is the method: as §1
For data set [7], the system named is erythrocyte (heat-induced hemolysis). The data set is described as follows: erythrocyte membrane stabilization assay (heat-induced erythrocyte hemolysis). To be noted: Erythrocyte, Table 8; 1 × 10^-4 M; read-out: inhibition of heat-induced erythrocyte hemolysis. The class given is cell-based. The method, boiled down: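 In vitro anti-inflammatory screen measuring stabilization of erythrocytes against heat-induced hemolysis, using 40% or 20% RBC suspensions. Compounds dissolved in physiologic saline or suspended in 2% ethanol in saline, pH adjusted to 7.4.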

The test system of data set [8] is Trichophyton mentagrophytes. Nature of the data set: MIC, two-fold (broth) serial dilution, T. mentagrophytes. The data set is classed as cell-based. The note with it: Trichophyton mentagrophytes, read-out: MIC. Here is the method: as §1

In brackets after ≈: the same amount, converted by molar mass. Entries after “also recorded” stand apart in the source; their conditions may differ. Read-outs that look alike come from different tables or passages of the source.

As to `CC(C)=CCCC1(C)C=Cc2c(O)cc(C)cc2O1` (centres unmarked) [CBC (II), 2 methyl-2(4'-methyl-pent-3'-enyl)-5-hydroxy-7-metylchromene], the MIC in data set [1] (24 h) is 3.12 µg/mL (≈ 12.1 µM); in data set [1] (48 h) it was 6.25 µg/mL (≈ 24.2 µM); in data set [2] (48 h), 6.25 µg/mL (≈ 24.2 µM); in data set [2] (72 h), 12.5 µg/mL (≈ 48.4 µM); in data set [5] (24 h) it was 3.12 µg/mL (≈ 12.1 µM); in data set [5] (48 h) it was 3.12 µg/mL (≈ 12.1 µM). Besides, the MIC worked out at 3.12 µg/mL (≈ 12.1 µM) in data set [6] (24 h), 3.12 µg/mL (≈ 12.1 µM) in data set [6] (48 h), 6.25 µg/mL (≈ 24.2 µM) in data set [8] (48 h) and 6.25 µg/mL (≈ 24.2 µM) in data set [8] (72 h). Further, the “toxic or adverse effects” value in data set [3] is “No toxic or adverse effects were observed”. For the same molecule, the “mean difference in volume (MDV)” value is 0.090 in data set [4] (60 mg/kg i.p.) and 0.070 in data set [4] (120 mg/kg i.p.). The entries for the “percent increase in paw volume” value in data set [4] (60 mg/kg i.p.) and in data set [4] (120 mg/kg i.p.) were 6.742% and 4.956%, respectively. Further, the percent of control in data set [4] (60 mg/kg i.p.) is 47.059%; in data set [4] (120 mg/kg i.p.) it was 36.601%. Also, the “antiinflammatory activity compared with PBZ in words” value in data set [4] (i.p.) is “slightly less activity than PBZ at the 120 mg/kg dose; also recorded: as active at PBZ at 60 mg/kg”. Moreover, in data set [4] (i.p.), the “antiinflammatory effect in words” value is “active at both 60 mg/kg and 120 mg/kg”. The inhibition at 100 µM in data set [7] turned out to be 86%.

(Values after patent US4837228A, “Antiinflammatory and antimicrobial compounds and compositions” (The University of Mississippi, priority 1982, dated 1989).)
